Source: US20260091043A1, “COMPOSITIONS AND METHODS FOR TREATING MYCOBACTERIUM INFECTIONS” (DATA2DISCOVERY, INC., priority 2022, published 2026)
Read-outs that look alike come from different tables or passages of the source.

Legend:
[1] = tested on: M. abscessus (ATCC Smooth strain); assay: M. abscessus (ATCC Smooth strain) resazurin growth inhibition assay; type: cell-based, Mycobacterium abscessus; details: for IC50 / IC90: Mycobacteroides abscessus; for activity against M. abscessus (in words): summary of table results
[2] = tested on: M. tuberculosis (H37RV strain); assay: M. tuberculosis (H37RV strain) resazurin growth inhibition assay; type: cell-based, Mycobacterium tuberculosis; details: for IC50 / IC90: Mycobacterium tuberculosis; for activity against M. tuberculosis (in words): summary of table results
[3] = M. abscessus ATCC Smooth, 96 well plate, 37° C. 4 days, resazurin, read after 1 day, read-out: IC50
[4] = M. abscessus ATCC Smooth, 96 well plate, 37° C. 4 days, resazurin, read after 1 day, read-out: IC90
[5] = M. tuberculosis H37RV, 96 well plate, 37° C. 4 days, resazurin, read 3 days later, read-out: IC50
[6] = M. tuberculosis H37RV, 96 well plate, 37° C. 4 days, resazurin, read 3 days later, read-out: IC90

| SMILES | IC50 [1, 3] | IC90 [1, 4] | IC50 [2, 5] | IC90 [2, 6] | activity against M. tuberculosis compared to kanamycin (in words) ([2]; comparison with control kanamycin) | activity against M. tuberculosis (in words) [2] | activity against M. abscessus (in words) [1] | IC50 ([2]; H37RV) | IC90 ([2]; H37RV) | IC50 [1] | IC90 [1] |
| --- | --- | --- | --- | --- | --- | --- | --- | --- | --- | --- | --- |
| NCC[C@H](O)C(=O)N[C@@H]1C[C@H](N)[C@@H](O[C@H]2O[C@H](CN)[C@@H](O)[C@H](O)[C@H]2O)[C@H](O)[C@H]1O[C@H]1O[C@H](CO)[C@@H](O)[C@H](N)[C@H]1O [Amikacin] | 4.78 µM | 7.15 µM |  |  |  |  |  |  |  |  |  |
| NC[C@H]1O[C@H](O[C@H]2[C@H](O)[C@@H](O[C@H]3O[C@H](CO)[C@@H](O)[C@H](N)[C@H]3O)[C@H](N)C[C@@H]2N)[C@H](O)[C@@H](O)[C@@H]1O [Kanamycin] | 12.1 µM | 16.1 µM | 1.06 µM | 4.22 µM |  |  |  |  |  |  |  |
| O=C(Nc1ccc([N+](=O)[O-])cc1Cl)c1cc(Cl)ccc1O [Niclosamide, niclosamide] | 32.2 µM | 59.1 µM | 1.92 µM | 2.95 µM | superior overall to kanamycin | significant activity | significant activity |  |  |  |  |
| O=C(Nc1ccc(Br)cc1)c1cc(Br)cc(Br)c1O [Tribromsalan, 3,5,4′-tribromosalicylanilide] |  |  |  |  |  | significant activity | significant activity | 67.2 µM | 76.9 µM | 99.8 µM | 147 µM |
